The test system of one data set is 7940B orthotopic tumors. As to the kind of experiment: 7940B syngeneic orthotopic model in C57BL/6 mice. It counts as in vivo, mouse. As to conditions: ESK981 30 mg/kg QD PO, trametinib 1 mg/kg QD PO.
Data set [1] concerns PDAC cells (7940B, PANC-1, Panc 04.03). Briefly: Rescue of antiproliferative effects with ferric ammonium citrate (FAC). The data set is classed as cell-based, human and mouse. As to conditions: with ferric ammonium citrate and ferrostatin-1 (1 μM). How it is done: (§1) Cells were seeded in a clear 96-well plate overnight prior to treatment. Upon treatment with indicated compounds, plates were incubated in an Incucyte S3 2022 Rev1 (Sartorious), with 10× images taken every 4 hours, and well confluence was analyzed to assess for proliferation.

The subject of the next data set is 7940B cells. As to the kind of experiment: Real-time oxygen consumption rate (Resipher) in 7940B cells. As to conditions: apilimod 100 nM, ESK981 1000 nM, bafilomycin 100 nM, chloroquine 100 μM. The data set is classed as cell-based, mouse. The method, then:
Real-time monitoring of basal oxygen consumption rate was performed using a Resipher (Lucid Scientific). […] Immediately following treatment with an additional 50 μl of medium (for a total of 100 μl), OCR monitoring was started by placing the Resipher device on the cells, which was incubated at 37° C. and 5% CO2 for 24 hours.

Data set [2] deals with MIA PaCa-2, PANC-1, and 7940B cell lines. As to the kind of experiment: Confluence assays of ND646 with PIKfyve inhibitors. The data set is classed as cell-based, human and mouse. As to conditions: ND646 100 nM (MIA PaCa-2, PANC-1), 1000 nM (7940B). How it is done: as §1
Another data set addresses T1, ACC1 (Homo sapiens, UniProt Q13085).
T1 construct: endogenous in cells; host or cells: MIA PaCa-2 (human PDAC)
Briefly: Immunoblot of ACC1 phosphorylation status upon ND646. It counts as cell-based. As to conditions: MIA PaCa-2, PANC-1, 7940B cells. The method, then: Cell lysates were prepared in RIPA buffer (ThermoFisher Scientific) supplemented with Halt™ Protease and Phosphatase Inhibitor Cocktail (ThermoFisher Scientific). Total protein was measured by DC™ Protein Assay Kit II (BIO-RAD). An equal amount of protein was resolved in NuPAGE™ 3 to 8%, Tris-Acetate Protein Gel (ThermoFisher Scientific) or NuPAGE™ 4 to 12%, Bis-Tris Protein Gel (ThermoFisher Scientific), blocked with 5% nonfat dry milk in TBS-T and blotted with primary antibodies overnight. Following incubation with HRP-conjugated secondary antibodies, membranes were imaged on an Odyssey CLx Imager (LiCOR Biosciences).

Another data set relates to LTL545 NEPC PDX tumors. As to the kind of experiment: LTL545 NEPC PDX model. As to conditions: mouse, in vivo.
Data set [3] deals with MIA-PaCa-2 human PDAC cell line xenograft. Briefly: MIA-PaCa-2 PDAC xenograft (CDX) in SCID mice. The data set is classed as in vivo. As to conditions: Day 36 versus Day 1. How it is done:
(§2) For xenograft studies, 6-10-week-old CB17 severe combined immunodeficiency (SCID) mice obtained from the University of Michigan breeding colony were used. For syngeneic studies, 6-10-week-old C57BL6 mice obtained from Jackson Laboratories were used. Subcutaneous tumors were established at both sides of the dorsal flank of the mice by injecting 1×10^6 cells in […] of 50:50 Matrigel and serum-free media. Tumors were measured 2-3 times per week using digital calipers following the formula (π/6) (L×W2), where L=length and W=width of the tumor. At the end of the studies, mice were sacrificed, and tumors extracted and weighed.
Terminal dUTP Nick End Labeling (TUNEL) staining was performed with an In Situ Cell Death Detection Kit (TMR Red #12156792910; Roche Applied Science) following the manufacturer's instructions. Briefly, fixed sections were permeabilized using Triton X-100 followed by PBS washing. The labelling reaction was performed at 37° C. for 1 hour by addition of the reaction buffer containing enzymes. Images were acquired using a Zeiss Axiolmager M1 microscope.
Given the enhanced autophagy dependence of PDAC and the urgent need for new therapies, ESK981 was investigated for efficacy in combatting this type of cancer. […]

Data set [4] concerns NCI-H660 NEPC cell line-derived xenografts. Briefly: NCI-H660 NEPC xenograft in SCID mice. The data set is classed as in vivo. As to conditions: 46 days of treatment, 30 mg/kg. How it is done: as §2
Given the hypoxic and nutrient-depleted environments of NEPC Guo et al., Nat Commun. 2019; 10(1):278; Qi et al., Cancer Cell. 2010; 18(1):23-38., it was hypothesized that NEPC may be dependent on autophagy and sensitive to PIKfyve inhibition by ESK981. To test this NEPC prostate patient-derived xenograft (PDX) of NCI-H660, LTL331R, and LTL610 were subcutaneously grown into non-castrated SCID mice until tumors reached an average size of 100 mm^3, after which mice were randomized into two groups. Mice in each group received either vehicle or 30 mg/kg ESK981 five days per week. […] The anti-tumor effect of ESK981 was in turn confirmed in two additional NEPC PDX models including LTL331R (FIGS. 12-14) and LTL610 xenografts (FIG. 15-17). […]

From patent publication US20260053801A1, “METHOD FOR TREATING AUTOPHAGY DEPENDENT CANCER WITH A PIKFYVE INHIBITOR” (The Regents of the University of Michigan, priority 2023, published 2026) come the findings set out here.

SMILES strings stand for the structures.

Take `CC(=O)Nc1cccc(-n2c(=O)n(C3CC3)c(=O)c3c(Nc4ccc(I)cc4F)n(C)c(=O)c(C)c32)c1` [trametinib]: the “mouse body weight throughout the treatment course” value with 7940B orthotopic tumors is recorded as “did not impact mouse body weight”.
Turning to `CO/C1=C\C(C)=C\[C@@H](C)[C@@H](O)[C@@H](C)C/C(C)=C/C=C/[C@H](OC)[C@@H]([C@@H](C)[C@@H](O)[C@H](C)[C@@]2(O)C[C@@H](O)[C@H](C)[C@@H](C(C)C)O2)OC1=O` [bafilomycin A1], the “antiproliferative effects upon addition of FAC” value in data set [1] was “drastically attenuated”. For the same compound, the “OCR through 24 hours of treatment” value in the data set with 7940B cells is “significantly decreased OCR”.
As to `COc1ccccc1[C@H](Cn1c(=O)n(C(C)(C)C(N)=O)c(=O)c2c(C)c(-c3ncco3)sc21)OC1CCOCC1` [ND646], the “sensitization to ESK981 (confluence)” value in data set [2] (ESK981 30 nM or 100 nM) was “sensitized”. The “sensitization to apilimod (confluence)” value in data set [2] (apilimod 100 nM or 50 nM) was “sensitized”. Further, the “phosphorylation status of ACC1 (p-ACC1)” value on ACC1 is given as “on-target effects”.
As to `CC(C)Cn1c2ccc(Nc3ncccn3)cc2c2c3c(c4c(c21)CCc1nn(C)cc1-4)C(=O)NC3` [ESK981, 13-isobutyl-4-methyl-10-(pyrimidin-2-ylamino)-1,2,4,7,8,13-hexahydro-6H-indazolo[5,4-a]pyrrolo[3,4-c]carbazol-6-one], in the data set with 7940B orthotopic tumors, the “mouse body weight throughout the treatment course” value is “did not impact mouse body weight”. Besides, in the data set on LTL545 NEPC PDX tumors, the “individual tumors regressed (waterfall plot)” value is 80% and the tumors cured stood at 80%. The “rate of tumor regression (waterfall plot)” value in data set [3] is reported as 64%. Moreover, the adverse events entry in data set [4] is “no adverse events were observed”.
